Measured values: PMC3106998, “The novel sigma-2 receptor ligand SW43 stabilizes pancreas cancer progression in combination with gemcitabine” (2010)

Target: T1, sigma-2 receptor (Mus musculus, UniProt Q8VD00)
T1 construct: gene Tmem97; Panc02 tumor membrane homogenates
T1 sequence (Q8VD00 1-176): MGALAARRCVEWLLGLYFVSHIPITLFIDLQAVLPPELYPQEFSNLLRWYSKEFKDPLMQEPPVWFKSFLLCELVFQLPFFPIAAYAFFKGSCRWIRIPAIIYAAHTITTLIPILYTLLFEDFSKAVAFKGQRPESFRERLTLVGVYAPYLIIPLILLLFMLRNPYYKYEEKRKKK
Experiment: radioligand competition with […]-ISO-2 in membrane homogenates
Type: binding

| SMILES | IC50 |
| --- | --- |
| COc1ccc(C)cc1NC(=O)OC1CC2CCCC(C1)N2CCCCCCCCCCN (centres unmarked) [SW43] | 18 ± 2.1 nM |
| COc1ccc(C)cc1NC(=O)OC1CC2CCCC(C1)N2CCCCCCN (centres unmarked) [SV119] | 7.8 ± 1.7 nM |
